# Results reported in patent EP3381909A1, “NEW TRIAZINE SUBSTANCE FOR USE IN THE TREATMENT OF CANCER, SPECIFICALLY IN THE TREATMENT OF NON-SMALL CELL CANCER, AND PHARMACEUTICAL COMPOSITION COMPRISING SAID SUBSTANCE” (Universite de Nantes, priority 2017, dated 2018).
# Like-named read-outs stand apart in the source and are kept apart here.
# Columns and labels:
# [1] = tested on: A549 cells synchronised in M phase; settings: after 17 hours of treatment, previous work; cited from earlier work
# [2] = tested on: A549; assay: Continuous drug exposure growth kinetics over 72 h; assay type: cell-based; settings: for cell growth (proliferation) versus time: A549, 72 h kinetics
# Experimental: (§1) Experiments were performed in 96-well microtiter plates (10^5 cells/mL for NSCLC-N6-L16 and 2X10^4 cells/mL for A549). Cell growth was estimated by a colorimetric assay based on the conservation of tetrazolium dye (MTT) to a blue formazan product by live mitochondria. Eight repeats were performed for each concentration. Control growth was estimated from 8 determinations. Optical density at 570 nm corresponding to solubilized formazan was read for each well on a Titertek Multiskan MKII.
# (§2) The kinetics were carried out on the two cell lines NSCLC-N6-L16 and A549 over a time of 72 h. The results are presented in the graphs of figures 1 to 4 representing the cell growth as a function of time. One of the curves represents the cell growth control; the others correspond to the different concentrations tested. The latter are chosen according to the IC50 in order to surround it at best (Table 3).
# [3] = tested on: NSCLC-N6-L16; assay: Continuous drug exposure growth kinetics over 72 h; assay type: cell-based, human; settings: for "plateau" of cytostatic type, time of treatment after which it is visible: NSCLC-N6-L16, highest doses, A190: 104.9 µM, 78.9 µM, A204: 8.4 µM, 5.6 µM
# Experimental: as §1, §2
# [4] = tested on: A549; assay: Cytotoxicity determination, continuous drug exposure (MTT colorimetric assay); assay type: cell-based; settings: for IC50: Homo sapiens, A549 cell line, MTT, read-out: IC50: Half maximal inhibitory concentration
# Experimental: (§3) A549 and NSCLC-N6 cell lines were used for all experiments. They were obtained respectively from an adenocarcinoma and an epidermoid lung cancer. The NSCLC-N6-L16 cell line was derived from a human non-small-cell bronchopulmonary carcinoma (moderately differentiated, classified as T2N0M0). The A549 was obtained from the ATCC collection (reference CCL-185) and is known to have a wild type p53 gene, while NSCLC-N6 has a mutant p53 gene, similar to the in situ tumors.
# (§4) Both cell lines were cultured in RPMI-1640 medium with 5% fetal bovine serum, to which were added 100 IU penicillin/ml, 100 µg/mL streptomycin and 2 mM glutamine at 37°C in an air/carbon dioxide (95:5, v/v) atmosphere. The NSCLC-N6-L16 cell line is a model which never exceeded 35 passages in all experiments. Then this model stays very close to the original tumor.
# as §1
# [5] = tested on: NSCLC-N6-L16; assay: as above; assay type: cell-based; settings: Homo sapiens, read-out: IC50: Half maximal inhibitory concentration
# Experimental: as §3, §4, §1
# [6] = tested on: mutant p53, NEDD9 gene; settings: Rousseau et al., Sci. Rep. 5, 10556, 2015; cited from earlier work
# [7] = tested on: A549 cells synchronised in M phase; assay: Gene expression by quantitative real-time RT-PCR in cells synchronised in M phase; assay type: cell-based; settings: A549, at 17 hours; treated at the IC50 (figure legend: 39.4µM)
# Source text: (§5) During the mitosis, cell shape and adhesion are radically changed. Indeed, this phase induces a depolymerization of the microtubules, a loss of the cytoskeleton and consequently a decrease of the adhesion to the support. […] It is thus easy to isolate these cells by a slight agitation of the culture medium in order to remove and suspend the cells. The cells are then recovered by slow centrifugation and replaced in a new culture flask.
# (§6) Total RNA was extracted from NSCLC-N6-L16 and A549 cell lines using the Dynabeads® mRNA DirectTM Kit (Ambion by Life Technologies). The isolation protocol relies on base pairing between the polyA residues at the 3' end of most mRNA and the oligo (dT) residues covalently coupled to the surface of the Dynabeads®. The quality and concentration of purified RNA were assessed using UV absorbance at 260/280 nm and samples were run on 1% agarose gel in order to assess their quality. RNA was stored at - 80 °C.
# RT was carried out with 1 µg of RNA in 10 µL with 0.125 µg/µL random primers and RNase-free water. This mixture was denatured at 65°C for 10 min then kept on ice. Subsequently, it was completed to a final volume of 25 µL with a mix containing 8 mM of dNTP mix, 1X of M- MLV 5X reaction buffer, 25 units of recombinant RNasin ribonuclease inhibitor (Promega), and 200 units of M-MLV RT (Promega) and RNase-free water. […]
# [8] = tested on: synchronized cells; assay: Activity kinetics on synchronized cells (data not shown); assay type: cell-based
# Source text: as §5
# It was observed that the cell doubling time of the cell line NSCLC-N6-L16 is about 17 hours and 22-23 hours for A549. Indeed, the molecule A204 act on different genes such as HEF1, the expression of which is variable along the cell cycle.
# [9] = tested on: NSCLC-N6-L16 cells synchronised in M phase; assay: Gene expression by quantitative real-time RT-PCR in cells synchronised in M phase; assay type: cell-based, human
# Source text: as §5, §6
# RT was carried out with 1 µg of RNA in 10 µL with 0.125 µg/µL random primers and RNase-free water. This mixture was denatured at 65°C for 10 min then kept on ice. Subsequently, it was completed to a final volume of 25 µL with a mix containing 8 mM of dNTP mix, 1X of M- MLV 5X reaction buffer, 25 units of recombinant RNasin ribonuclease inhibitor (Promega), and 200 units of M-MLV RT (Promega) and RNase-free water. In order to check whether the samples were contaminated by genomic DNA, the same mix was made with RNA without the reverse transcriptase. Following this step, samples were incubated for 2 h at 37°C. cDNAs were stored at -20°C. After reverse transcription, cDNAs were used as a template for specific qPCR.
# Real-time RT-PCR was carried out in a final volume of 25 µL with 1µL 1:20 dilution of diluted cDNA mixture, 10 pmol gene-specific forward and 10 pmol reverse primer in 1X SYBR Green PCR master mix (Eurogentec) with the following protocol: 15 s at 95 °C for denaturation, 30 s at 60°C for annealing and extension on a ABI Prism Sequence Detection System 5700 (Applied Biosystems). The primers were designed using Primer 3 (http://frodo.wi.mit.edu/). All primer sequences were controlled with a dimers finder to reduce the risk of unspecific hybridization of Sybr-green (Operon oligo toolkit: see https://www.operon.com(oligos/toolkit.php).
# The relative expression of each gene was normalized to that of human β-actin: forward 5'-[…]-3' (SEQ ID NO: 13), reverse 5'-[…]-3' (SEQ ID NO: 14) (10 mM, Sigma Genosys). Normalization was carried out using the ΔΔCt method. Non-template control sample was used for each PCR to check the genomic DNA contaminations of the cDNA template. Analysis of the results was carried out using GenAmp 5700 SDS (Applied Biosystems) software.
# The expression of four genes of interests were studied in the cell line NSCLC-N6-L16: HEF1, p53, C3G and FAK. It was carried out by RT-QPCR on the synchronized cells not treated (dark histograms) or treated (grey histograms) by A240 at the IC50. The study was performed between 10 and 17 hours in order to follow the gene expression with an extraction every hour.
structure (smiles),measurement,setting,value
NC1=NC(C23CC4CC(CC(C4)C2)C3)N(c2ccc(Cl)cc2)C(N)=N1 (centres unmarked) [A190],expression of gene AKT,[1],overexpression
same,expression of gene PI3K,[1],overexpression
same,cell growth (proliferation) versus time,[2],reduced for both cell lines in a dose-dependent manner
same,cytostatic activity since (concentration),"[2]; A549, continuous exposure",≥ 26.3 µM
same,"plateau of cytostatic type, time of treatment after which it is visible","[2]; A549, A190 at 104.9, 78.9, 52.6, 26 µM",> 48 h
same,cell growth (proliferation) versus time,"[3]; NSCLC-N6-L16, 72 h kinetics",reduced for both cell lines in a dose-dependent manner
same,cytostatic activity since (concentration),"[3]; NSCLC-N6-L16, continuous exposure",≥ 26.3 µM
same,"""plateau"" of cytostatic type, time of treatment after which it is visible",[3],> 48 h
same,IC50,[4],71 ± 1.2 µM
same,IC50,[5],24.1 ± 2.2 µM
same,expression of the NEDD9 gene,[6],overexpression
same,mutant p53 activity,[6],restores mutant p53 activity
"NC1=NC(C23CC4CC(CC(C4)C2)C3)N(Cc2ccc(Cl)cc2)C(N)=N1 (centres unmarked) [A204, 4,6-diamino-1,2-dihydro-1-(4""-chlorobenzyl)-2-(1-tricyclo [3.3.1.1,4]decyl)-1,3,5-triazine]",expression of gene AKT,[7],overexpression
same,expression of gene PI3K,[7],overexpression
same,cell growth (proliferation) versus time,[2],follow perfectly that of the control cells
same,"""plateau"" of cytostatic type, time of treatment after which it is visible",[3],> 48 h
same,time at which the effect of the treatment is beginning,[8],around 30 hours
same,expression of gene P53,"[9]; 10 to 17 hours, treated vs control",clearly shows an influence of the treatment on the expression
same,time of action compared with A190,"[9]; NSCLC-N6-L16, same cytostatic effect, relative to A190",three hours earlier
same,expression of gene C3G,[9]; at 17 hours (G2 / M phase),collapse
same,expression of gene HEF1,"[9]; at around 12 hours, treated at the IC50 (figure legend: 39.4µM) vs control",highly overexpressed
same,expression of gene C3G,[9]; between 11 and 13 hours (end of G1 phase),widely overexpressed
same,expression of gene FAK,[9]; between 12 and 16 hours (phase of synthesis),decreased expression
same,expression of gene HEF1,[9]; between 13 and 15 hours,collapses
same,expression of gene C3G,[9]; between 13 and 16h,goes up gradually
same,expression of gene HEF1,[9]; between 15 and 17 hours (G2 / M phase),relatively close to the level of the control cells
same,IC50 / amount required compared with A190,"[4]; A549, relative to A190",seven times less
same,IC50,[4],9.7 ± 0.7 µM
same,IC50,[5],5.01 ± 0.5 µM
